# According to patent US20200308540A1, “METHODS OF MAKING, EXPANDING, AND USING A HUMAN PROGENITOR T CELL” (REGENTS OF THE UNIVERSITY OF MINNESOTA, priority 2017, published 2020):
# Experiments:
# [1] = test system: CD34^+ hematopoietic stem/progenitor cells (HSPCs); test: SR1 expansion culture of umbilical cord blood CD34+ HSPC (15 days); format: cell-based, human
# Procedure: Frozen UCB units were thawed using standard methods (Rubinstein et al., Proc Natl Acad Sci USA. 1995; 92:10119-10122). The UCB unit was enriched for CD34^+-cells using the CliniMACS Cell Selection Device (Miltenyi Biotec, Gladbach, Germany) following manufacturer's instructions, and the resulting CD34-enriched cell population was placed in expansion media at a concentration of 5×10^3 cells per milliliter (cells/mL). The expansion culture media included SCF, FLT-3L, TPO, IL-6 (each at 50 ng/ml) and SR1 (750 nM). Cells were cultured in expansion culture media without the addition of antibiotics for 15 days; cytokines were replenished and cells were resuspended at 5×10^3 cells/mL at day 7.
# HSC expansion media cultures (Boitano et al. Science. 2010; 329(5997):1345-1348) lasted 15 days prior to freezing.
# It was previously reported that naïve-UCB can generate 4- to 5-fold Tprog expansion (Awong et al. Blood. 2009; 114(5):972-982). At least 2×10^5 CD34^+ HSPC are needed for HSCT; but a single UCB unit averages 2.5×10^3 CD34^+ HSPC (Delaney et al. Expert Rev Hematol. 2010; 3(3):273-283). This Example describes an investigation of whether adding SR1 (0.75 μM) to expand CD34^+ HSPC Wagner et al. Cell Stem Cell. 2016; 18(1):144-155) could improve in vitro pro-T generation. CD34^+ HSPC culture reproducibility (FIG. 11A) was characterized. […] 2012; 10(2):120-136).
# [2] = test system: progenitor T cells (CD7^+ cells); test: OP9-DL1 co-culture of SR1-/UM171-expanded cells to generate progenitor T cells; format: cell-based, human; conditions: for CD34 expression during culture with OP9-DL1 cells: cells expanded with compound, then OP9-DL1 culture
# Procedure: 1. SR1-expanded cells were suspended in 3 mL of OP9 media then seeded into a plate/flask containing irradiated OP9-DL1 cells at 80% confluency. The human cytokines FLT-3L, IL-7, and SCF were added from a 1,000×stock solution (to 1×final concentration). 2. Additional human cytokines FLT-3L, IL-7, and SCF were added from a 1,000×stock solution (to 1×final concentration) every other day during cell culture. 3. At day 5 and every 3 days to 4 days thereafter, media containing cells was removed, and cells and media were passed through a 70 μm sterile nylon mesh or a 40 μm cell strainer into a 50 mL conical tube. Passage through the mesh or strainer removes OP9-DL1 cells but not cells derived from UCBs. PBS (5 mL) was added, and the coculture was disaggregated by vigorous pipetting (using a 5 mL pipette) and passed through the same cell strainer. […] 4. The cells that passed through the cell strainer were centrifuged at 515-585×g for 5 minutes, the supernatant was removed, and the cells were suspended in 1 mL of OP9 media. At this stage, the cells were counted using a hemocytometer (FIG. 2), assayed by flow cytometry (FIG. 3), or co-culture was continued. For continued co-culture, the cells were transferred into a new 6-well plate already containing OP9-DL1 cells at 80% confluency in 2 mL of OP9 media, and human cytokines FLT-3L, IL-7, and SCF were added from a 1,000×stock solution (to 1×final concentration). 5. Cells were harvested as described in steps 3 and 4 at day 14 or day 21 and phenotype was assessed (see FIG. 2, FIG. 3, and FIG. 7) or the cells were injected into a mouse, as described in Example 5. OP9-DL1 were gamma-irradiated (100 Gy) and seeded onto tissue culture flasks. SR1-UCB and naïve-UCB were seeded 2:1 with OP9-DL1 to generate proT-cells after 13-14 days (Schmitt et al. Immunity. 2002; 17(6):749-756). To examine whether SR1-expanded HSPC could generate proT-cells in vitro, SR1-HSPC were co-cultured with OP9-DL1 (FIG. 11A). […] SR1-HSPC and naïve-HSPC co-cultures had similar % CD34^−CD7^+ cells, % CD7^+CD5^+ cells and % CD7^+CD1a^+ cells (FIG. 11C). […] From SR1-HSPC, an approximately 4-fold expansion of pro-Tcells was observed, similar to naïve-HSPC co-cultures (FIG. 11D). Combining SR1-expansion of HSPCs and use of OP9-DL1 co-cultures, a single starting HSPC yielded approximately 2×10^3 cells, a 200-fold greater expansion of SR1-proT cells over naïve proT-cells (FIG. 11E).
# [3] = test system: NSG mice; test: Engraftment of progenitor T cells in NSG mice (thymus, spleen); conditions: mouse, in vivo
# Procedure: ProT cells generated as described in Example 4 (after 21 days of co-culture) were injected into the liver of 2 day to 5 day old neonatal (NOD/SCID/γcnull (NSG)) mice (3 mice per group) at different cell concentrations/mouse (e.g., 2×10^5 cells, 5×10^5 cells, or 5×10^6 cells in 30 μL, volume). Optionally, 2×10^4 CD34-enriched HSCs, isolated from a UCB unit using the CliniMACS Cell Selection Device (Miltenyi Biotec, Gladbach, Germany) following manufacturer's instruction, were injected simultaneously.
# Twelve weeks later, mice were sacrificed, and engraftment of the in vitro-derived ProT cells into immunodeficient mice was assessed by flow cytometry analysis using phenotypic characterization of cells within the thymus and spleen of the recipient mouse. Useful markers for analysis include CD45, CD3/TCR, CD8, CD4, CD5, CD7, and CD1a (antibodies were acquired from eBioscience, San Diego, Calif.).
# As shown schematically in FIG. 8, SR1-expanded CD34^+ cells from a UCB unit were put into culture with OP9-DL1 cells for 14 days as described in Example 4. […] Four weeks later the mice were sacrificed and the cells' ability to engraft the thymus was assessed.
# Tprogenitors were generated from naïve UCB by co-culture with OP9-DL1 cells for 14 days as described in Example 4. […] Four weeks later the mice were sacrificed and the cells' ability to engraft the thymus was assessed. […]
# [4] = test system: patients; conditions: SR1-expanded cord blood; cited from earlier work
# [5] = test system: CD34+ stem cells; conditions: median; Wagner et al. 2016; cited from earlier work
smiles,measurement,setting,value
"CC(C)n1cnc2c(NCCc3ccc(O)cc3)nc(-c3csc4ccccc34)nc21 [SR1, StemRegenin-1]",fold enhancement of total nuclear cells,"[1]; SR1 0.75 μM, by day 15",252-746 fold
same,fold expansion of CD34^+CD90^+ cells,"[1]; SR1 0.75 μM, by day 15",170-415 fold
same,fold expansion of long-term reconstituting CD34^+CD38^− cells,"[1]; SR1 0.75 μM, by day 15",157-558 fold
same,fold expansion of CD34^+ hematopoietic stem/progenitor cells (HSPCs),[1]; SR1-expanded umbilical cord blood,greater than 250 fold
same,cells yielded from a single starting HSPC,[2]; SR1-expansion of HSPCs combined with OP9-DL1 co-culture,approximately 2×10^3 cells
same,fold increase in ProT cells,"[2]; SR1 expansion of human UCB, then co-culture with Notch ligand cell without SR1",2000 fold
same,CD34 expression during culture with OP9-DL1 cells,[2],lose CD34 expression
same,percentage of culture that is proT cell (CD7^+ cell),[2]; flow cytometry after OP9-DL1 culture,greater than 90%
same,fold expansion of pro-T cells in OP9-DL1 co-culture,"[2]; from SR1-HSPC, day 14",approximately 4 fold
same,fold greater expansion of SR1-proT cells over naïve proT-cells,[2]; normalized to initial CD34+ input cell number,200 fold
same,"thymus engraftment of cells treated with the compound, after OP9-DL1 co-culture",[3],able to engraft the thymus
same,median time to neutrophil engraftment,[4],15 days
same,median time to platelet engraftment,[4],49 days
same,fold expansion of CD34+ stem cells,[5],330 fold
Cn1nnc(-c2ccc3c(c2)[nH]c2nc(Cc4ccccc4)nc(NC4CCC(N)CC4)c23)n1 (stereo not shown) [UM171],CD34 expression during culture with OP9-DL1 cells,[2],lose CD34 expression
same,"thymus engraftment of cells treated with the compound, after OP9-DL1 co-culture",[3],able to engraft the thymus
